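Growth conditions: 96-well plates. Treatment: test compound, 48 hours, 5 concentrations. Analysis: linear interpolation between bracketing concentrations; unreached endpoints set to highest concentration. GI50: concentration for 50% inhibition of growth. Definition used: TGI = concentration required for complete inhibition of growth.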
Tests used:
Experiment in all cases: NCI tumour cell line growth inhibition, 48 h
DU-145 prostate = tested on: DU-145 prostate
LOX IMVI melanoma = tested on: LOX IMVI melanoma
A498 renal = tested on: A498 renal
MDA-N = tested on: MDA-N
T-47D breast = tested on: T-47D breast
PC-3 prostate = tested on: PC-3 prostate
SNB-78 CNS = tested on: SNB-78 CNS
LXFL 529 NSCLC = tested on: LXFL 529 NSCLC
HOP-18 NSCLC = tested on: HOP-18 NSCLC
RXF-631 renal = tested on: RXF-631 renal
DMS 273 small cell lung = tested on: DMS 273 small cell lung
DMS 114 small cell lung = tested on: DMS 114 small cell lung
P388 leukemia = tested on: P388 leukemia
P388/ADR leukemia = tested on: P388/ADR leukemia
M19-MEL melanoma = tested on: M19-MEL melanoma
KM20L2 colon = tested on: KM20L2 colon
XF 498 CNS = tested on: XF 498 CNS

Row | Structure (SMILES) | TGI (DU-145 prostate) [µM] | TGI (LOX IMVI melanoma) [µM] | TGI (A498 renal) [µM] | TGI (MDA-N) [µM] | TGI (T-47D breast) [µM] | TGI (PC-3 prostate) [µM] | GI50 (DU-145 prostate) [µM] | GI50 (PC-3 prostate) [µM] | TGI (SNB-78 CNS) [µM] | TGI (LXFL 529 NSCLC) [µM] | TGI (HOP-18 NSCLC) [µM] | TGI (RXF-631 renal) [µM] | TGI (DMS 273 small cell lung) [µM] | TGI (DMS 114 small cell lung) [µM] | TGI (P388 leukemia) [µM] | TGI (P388/ADR leukemia) [µM] | TGI (M19-MEL melanoma) [µM] | TGI (KM20L2 colon) [µM] | TGI (XF 498 CNS) [µM] | GI50 (LOX IMVI melanoma) [µM]
1 | CCCCCCCNC(P(=O)(O)O)P(=O)(O)O | > 100 | > 100 | > 100 | > 100 | > 100 | > 100 |  |  |  |  |  |  |  |  |  |  |  |  |  | 
2 | Fc1ccc(-c2nn3c(-c4cc(C(F)(F)F)cc(C(F)(F)F)c4)nnc3s2)cc1 | > 50 |  |  |  |  | > 50 | > 50 | > 50 |  |  |  |  |  |  |  |  |  |  |  | 
3 | C=C1C(=O)O[C@@H]2[C@H]1CCC(C)=C1C=CC(=O)[C@]12C |  |  |  |  |  |  |  |  | 18.9 | 26.7 | 29.7 | 23.6 | 41.1 | 29.8 |  |  |  |  |  | 
4 | COC1=CC(=O)c2c(cc(COP(=O)(OCC3OC(n4cc(F)c(=O)[nH]c4=O)CC3O)N(C)CCCCCl)n2C)C1=O (stereo not given) | 33.3 | 14.7 |  | 8.86 | 36.2 | 22.7 |  |  |  |  |  |  |  |  |  |  |  |  |  | 
5 | O=C(O)C1CCC(=O)N1S(=O)(=O)c1ccccc1 (stereo not given) |  | > 100 | > 100 |  |  |  |  |  | > 100 |  | > 100 |  | > 100 | > 100 | > 100 | > 100 | > 100 | > 100 | > 100 | 
6 | CO/C(=C/C(=O)C(Cl)(Cl)Cl)CC/C(=C\C(=O)C(Cl)(Cl)Cl)OC | 56.7 | 41.5 | > 100 | 66 | 72.5 | 87.7 |  |  |  |  |  |  |  |  |  |  |  |  |  | 
7 | O=C(Nc1c(C(=O)NC2CCCCC2)[nH]c(=O)[nH]c1=O)c1ccc(Cl)cc1 |  | > 100 |  |  |  |  |  |  |  | > 100 | > 100 |  |  | > 100 |  |  | > 100 |  | > 100 | 
8 | c1ccc(N=c2nc(N3CCOCC3)ss2)cc1 |  | 30.1 | 79.5 |  |  |  |  |  | 51.3 | 24.6 | > 100 | 31.7 | 31.4 | 30.2 |  |  | 32 | 31.4 | 32.1 | 
9 | NC1(C(=O)O)CCc2ccc(N(CCCl)CCCl)cc2C1 (stereo not given) |  | > 100 | > 100 |  |  |  |  |  |  |  | > 100 |  | > 100 | > 100 | 7.27 | 35.1 | > 100 | > 100 | > 100 | 
10 | CC(=O)OCC1=C(C(=O)O)C(c2ccc3c(c2)OCO3)c2cc3c(cc2O1)OCO3 (stereo not given) |  | > 100 |  |  |  |  |  |  | > 100 |  | > 100 | > 100 | > 100 | > 100 |  |  | > 100 | > 100 | > 100 | 
11 | Cc1cc(C)c2c(c1)C1=NCCN1C2(O)c1ccc(Cl)cc1 (stereo not given) | 40.5 | 93.4 | 28.6 | 28.3 | 41.7 | 36.3 |  |  |  |  |  |  |  |  |  |  |  |  |  | 
12 | Cc1cc2c(C(C)C)c(O)c(O)c(C=NCCO)c2c(O)c1-c1c(C)cc2c(C(C)C)c(O)c(O)c(C=NCCO)c2c1O |  | 3.11 | 9.76 |  |  |  |  |  | 34.1 | 3.05 | 5.37 | 5.35 | 3.16 | 2.7 |  |  | 3.62 |  | 8.43 | 
13 | CC(=O)O[C@H]1C=CC(=O)C(C)CC1C (stereo not given in full) |  | > 100 | > 100 |  |  |  |  |  | > 100 | > 100 |  | > 100 | > 100 | > 100 |  |  | > 100 | > 100 | > 100 | 
14 | Clc1ccc(CNc2nc(Cl)c3[nH]cnc3n2)cc1Cl | > 100 |  | 45.4 | > 100 | 51.3 | > 100 |  |  |  |  |  |  |  |  |  |  |  |  |  | 
15 | CCOc1ccc(/C(C=O)=C(\Cl)c2ccc(OC)c(OC)c2)cc1 |  | > 100 | > 100 |  |  |  |  |  | > 100 | > 100 | > 100 | > 100 | > 100 | > 100 |  |  | > 100 | > 100 | 79.2 | 
16 | Cc1ccc(C2N=C(N)NC3=C2CCOc2c3ccc3ccccc23)cc1 (stereo not given) | > 85.4 | 38.9 | 41 |  | > 65.3 | > 75 |  |  |  |  |  |  |  |  |  |  |  |  |  | 9.98
17 | N=C(N)SCc1cc(Cl)cc(Cl)c1O | 36.2 | 36.2 | 51.7 | 33.1 | 51.8 | 43.9 |  |  |  |  |  |  |  |  |  |  |  |  |  | 
18 | O=C(COc1ccc(OCC(=O)NNC2=NC(c3cc(F)c(Cl)cc3Cl)CS2)c(Cl)c1)NNC1=NC(c2cc(F)c(Cl)cc2Cl)CS1 (stereo not given) | 59.8 | 5.15 | 56.2 | 92.9 |  | > 100 |  |  |  |  |  |  |  |  |  |  |  |  |  | 
19 | CC(=O)C=NCC(=O)O | > 100 | > 100 | > 100 | > 100 | > 100 | > 100 |  |  |  |  |  |  |  |  |  |  |  |  |  | 
20 | CCCC(N)C(=O)c1ccccc1 (stereo not given) |  | > 100 | > 100 |  |  |  |  |  | > 100 | > 100 | > 100 |  | > 100 | > 100 |  |  |  | > 100 | > 100 | 
21 | c1ccc(-c2nnc(SCc3c[nH]c4ccccc34)n2-c2ccccc2)cc1 | > 100 | > 100 | 56 | > 100 | > 100 | 93.9 |  |  |  |  |  |  |  |  |  |  |  |  |  | 
22 | COc1c2c(cc3c1OCO3)C13C=CC(OC)CC1N(CC3)C2 (stereo not given) | > 100 | > 100 | > 100 | > 100 | > 100 | > 100 |  |  |  |  |  |  |  |  |  |  |  |  |  | 
23 | O=C(Nc1ccc(Sc2ccc(N=Nc3c(O)c(S(=O)(=O)O)cc4cc(S(=O)(=O)O)ccc34)cc2)cc1)c1ccc(N=Nc2c(O)ccc3c(S(=O)(=O)O)cc(S(=O)(=O)O)cc23)cc1 |  | 34.8 | > 100 |  |  |  |  |  | > 100 | > 100 | > 100 | > 100 | > 100 |  |  |  | 68.6 | > 100 | 91.7 | 
24 | Cc1cc(C)nc(SCC(=O)OC2CC(C)CCC2C(C)C)n1 (stereo not given) | > 100 | 37.5 | 47.2 |  | 54.2 | 69.5 |  |  |  |  |  |  |  |  |  |  |  |  |  | 
25 | N#CC(Nc1cccc(C(F)(F)F)c1)c1ccccc1C(F)(F)F (stereo not given) |  | 14.5 | 34.2 |  |  |  |  |  | 43 | 15.7 | 26.4 |  | 21.1 | 23.8 |  |  | 18 | 28.4 | 12.9 | 

Source: PubChem BioAssay (NCI)
